Tests used:
human PPARγ = target: T1, human PPARγ (Homo sapiens, UniProt P37231); test: PPARγ agonistic activity: luciferase reporter assay in PPARγ:RXRα:4ERPP/CHO-K1 cells; format: cell-based; conditions: CHO-K1, test compound 10^−6 M; luciferase activity of control compound X (1 μM) = 100%, non-administration group = 0%
T1 construct: expressed in transfected cells
T1 sequence (P37231 1-477 isoform P37231-2): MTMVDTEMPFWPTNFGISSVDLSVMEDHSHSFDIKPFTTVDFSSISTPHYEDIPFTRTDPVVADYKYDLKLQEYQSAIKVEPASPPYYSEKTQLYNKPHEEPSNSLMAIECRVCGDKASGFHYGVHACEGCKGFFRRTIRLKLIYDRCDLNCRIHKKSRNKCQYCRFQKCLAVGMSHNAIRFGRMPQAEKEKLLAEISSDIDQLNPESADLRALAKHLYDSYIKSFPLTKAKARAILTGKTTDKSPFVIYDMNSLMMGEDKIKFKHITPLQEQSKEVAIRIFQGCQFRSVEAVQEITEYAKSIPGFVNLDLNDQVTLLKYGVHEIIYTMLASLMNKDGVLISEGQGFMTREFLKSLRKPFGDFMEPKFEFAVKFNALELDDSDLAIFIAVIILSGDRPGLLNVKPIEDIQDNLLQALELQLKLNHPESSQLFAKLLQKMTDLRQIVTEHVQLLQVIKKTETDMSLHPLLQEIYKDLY
T1 sequence (P19793 1-462 partner): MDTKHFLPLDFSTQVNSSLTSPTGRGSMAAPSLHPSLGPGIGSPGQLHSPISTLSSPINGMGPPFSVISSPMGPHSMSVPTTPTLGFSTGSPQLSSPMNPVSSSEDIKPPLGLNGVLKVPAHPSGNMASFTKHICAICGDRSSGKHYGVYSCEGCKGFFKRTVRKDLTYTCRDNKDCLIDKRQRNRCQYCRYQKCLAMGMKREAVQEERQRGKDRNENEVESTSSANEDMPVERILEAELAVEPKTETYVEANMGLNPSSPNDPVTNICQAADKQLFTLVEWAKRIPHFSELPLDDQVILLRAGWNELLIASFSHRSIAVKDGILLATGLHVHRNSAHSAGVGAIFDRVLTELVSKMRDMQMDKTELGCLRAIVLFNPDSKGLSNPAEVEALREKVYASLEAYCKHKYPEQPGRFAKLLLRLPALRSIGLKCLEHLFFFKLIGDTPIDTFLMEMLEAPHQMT
Method in brief: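 Activity is expressed relative to untreated cells (0%) and 1 μM reference compound X (100%), from luciferase luminescence. Reporter line: PPARγ:RXRα:4ERPP/CHO-K1, exposed to compound for one day at 37 °C in F12 medium containing 0.1% fatty-acid-free BSA.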

human AT1 receptor = target: T2, human AT1 receptor (Homo sapiens, UniProt P30556); test: AT1 receptor antagonistic activity: [125I]-angiotensin II binding assay on human AT1 receptor-expressing CHO-K1 cellular membrane fraction; conditions: 22.5 pM [125I]-angiotensin II, 1 hr room temperature
T2 construct: expressed in transfected cells; membrane fraction
T2 sequence (P30556 1-359): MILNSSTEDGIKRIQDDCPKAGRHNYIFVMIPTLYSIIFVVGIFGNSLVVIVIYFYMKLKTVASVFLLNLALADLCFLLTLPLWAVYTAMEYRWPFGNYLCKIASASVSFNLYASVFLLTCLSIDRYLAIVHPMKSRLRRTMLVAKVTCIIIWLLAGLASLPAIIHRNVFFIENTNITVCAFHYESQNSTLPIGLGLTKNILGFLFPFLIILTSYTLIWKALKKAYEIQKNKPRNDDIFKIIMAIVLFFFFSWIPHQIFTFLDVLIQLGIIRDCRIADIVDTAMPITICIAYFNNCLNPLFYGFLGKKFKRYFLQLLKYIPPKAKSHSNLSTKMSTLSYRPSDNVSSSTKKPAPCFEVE
Method in brief: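 Competition binding used radiolabelled angiotensin II on stably transfected CHO-K1 membrane fractions in Tris pH 7.4/MgCl2 buffer, optionally containing 0.3 mg/mL fatty acid-free BSA, 1 hr at room temperature. Filtration onto GF/C separated bound tracer, and nonspecific binding was measured with candesartan.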

| SMILES | activation at 1 µM (human PPARγ) [%] | IC50 (human AT1 receptor) [nM] |
| --- | --- | --- |
| CCCc1c(Cc2ccc(-c3ccccc3-c3noc(=O)[nH]3)cc2)c(=O)n([C@H]2CC[C@H](OCCO)CC2)c2ncnn12 [Example 164, 4-[trans-4-(2-hydroxyethoxy)cyclohexyl]-6-{[2′-(5-oxo-4,5-dihydro-1,2,4-oxadiazol-3-yl)biphenyl-4-yl]methyl}-7-propyl[1,2,4]triazolo[1,5-a]pyrimidin-5(4H)-one] | 18 | 1 |
| CCCc1c(Cc2ccc(-c3ccccc3-c3noc(=O)[nH]3)cc2F)c(=O)n([C@H]2CC[C@@H](O)CC2)c2ncnn12 [Example 166, 6-{[3-fluoro-2′-(5-oxo-4,5-dihydro-1,2,4-oxadiazol-3-yl)biphenyl-4-yl]methyl}-4-(cis-4-hydroxycyclohexyl)-7-propyl[1,2,4]triazolo[1,5-a]pyrimidin-5(4H)-one] | 22 | 1.3 |
| CCCc1c(Cc2ccc(-c3ccccc3-c3noc(=O)[nH]3)cc2F)c(=O)n([C@H]2CC[C@H](O)CC2)c2ncnn12 [Example 167, 6-{[3-fluoro-2′-(5-oxo-4,5-dihydro-1,2,4-oxadiazol-3-yl)biphenyl-4-yl]methyl}-4-(trans-4-hydroxycyclohexyl)-7-propyl[1,2,4]triazolo[1,5-a]pyrimidin-5(4H)-one] | 43 | 0.8 |
| CCCc1c(Cc2ccc(-c3ccccc3-c3noc(=O)[nH]3)cc2)c(=O)n([C@H]2CC[C@H](C(=O)OCC)CC2)c2ncnn12 [Example 168, ethyl trans-4-[5-oxo-6-{[2′-(5-oxo-4,5-dihydro-1,2,4-oxadiazol-3-yl)biphenyl-4-yl]methyl}-7-propyl[1,2,4]triazolo[1,5-a]pyrimidin-4(5H)-yl]cyclohexanecarboxylate] | 54 | 1.4 |
| CCCc1c(Cc2ccc(-c3ccccc3-c3noc(=O)[nH]3)cc2)c(=O)n([C@H]2CC[C@H](c3nc(C)no3)CC2)c2ncnn12 [Example 169, 4-[trans-4-(3-methyl-1,2,4-oxadiazol-5-yl)cyclohexyl]-6-{[2′-(5-oxo-4,5-dihydro-1,2,4-oxadiazol-3-yl)biphenyl-4-yl]methyl}-7-propyl[1,2,4]triazolo[1,5-a]pyrimidin-5(4H)-one] | 54 | 1.4 |
| CCCc1c(Cc2ccc(-c3ccccc3-c3noc(=O)[nH]3)cc2)c(=O)n(C2CCC3(CC2)OCC(C)(C)CO3)c2ncnn12 [Example 170, 4-(3,3-dimethyl-1,5-dioxaspiro[5.5]undec-9-yl)-6-{[2′-(5-oxo-4,5-dihydro-1,2,4-oxadiazol-3-yl)biphenyl-4-yl]methyl}-7-propyl[1,2,4]triazolo[1,5-a]pyrimidin-5(4H)-one] | 20 | 1.6 |
| CCCc1c(Cc2ccc(-c3ccccc3-c3noc(=O)[nH]3)cc2)c(=O)n([C@H]2CC[C@H](c3nnc(C)o3)CC2)c2ncnn12 [Example 173, 4-[trans-4-(5-methyl-1,3,4-oxadiazol-2-yl)cyclohexyl]-6-{[2′-(5-oxo-4,5-dihydro-1,2,4-oxadiazol-3-yl)biphenyl-4-yl]methyl}-7-propyl[1,2,4]triazolo[1,5-a]pyrimidin-5(4H)-one] | 28 | 1.7 |
| CCCc1c(Cc2ccc(-c3ccccc3-c3noc(=O)[nH]3)cc2)c(=O)n(C2CCC3(CC2)OCC(C)(C)O3)c2ncnn12 (stereo not shown) [Example 179, 4-(2,2-dimethyl-1,4-dioxaspiro[4.5]dec-8-yl)-6-{[2′-(5-oxo-4,5-dihydro-1,2,4-oxadiazol-3-yl)biphenyl-4-yl]methyl}-7-propyl[1,2,4]triazolo[1,5-a]pyrimidin-5(4H)-one] | 41 | 1.9 |
| CCCc1c(Cc2ccc(-c3ccccc3-c3noc(=O)[nH]3)cc2)c(=O)n(C2CCC3(CC2)OC(C)(C)C(C)(C)O3)c2ncnn12 [Example 180, 6-{[2′-(5-oxo-4,5-dihydro-1,2,4-oxadiazol-3-yl)biphenyl-4-yl]methyl}-7-propyl-4-(2,2,3,3-tetramethyl-1,4-dioxaspiro[4.5]dec-8-yl)[1,2,4]triazolo[1,5-a]pyrimidin-5(4H)-one] | 31 | 3.5 |
| CCCc1c(Cc2ccc(-c3ccccc3-c3nnn[nH]3)cc2)c(=O)n(C2CCC3(CC2)OC(C)(C)C(C)(C)O3)c2ncnn12 [Example 181, 7-propyl-4-(2,2,3,3-tetramethyl-1,4-dioxaspiro[4.5]dec-8-yl)-6-{[2′-(1H-tetrazol-5-yl)biphenyl-4-yl]methyl}[1,2,4]triazolo[1,5-a]pyrimidin-5(4H)-one] | 18 | 3.2 |
| CCCc1c(Cc2ccc(-c3ccccc3-c3noc(=O)[nH]3)cc2)c(=O)n([C@H]2CC[C@](C)(OCCO)CC2)c2ncnn12 [Example 183, 4-[trans-4-(2-hydroxyethoxy)-4-methylcyclohexyl]-6-{[2′-(5-oxo-4,5-dihydro-1,2,4-oxadiazol-3-yl)biphenyl-4-yl]methyl}-7-propyl[1,2,4]triazolo[1,5-a]pyrimidin-5(4H)-one] | 30 | 2.5 |
| CCCc1c(Cc2ccc(-c3ccccc3-c3noc(=O)[nH]3)cc2)c(=O)n([C@H]2CC[C@H](c3cnco3)CC2)c2ncnn12 [Example 184, 4-[trans-4-(1,3-oxazol-5-yl)cyclohexyl]-6-{[2′-(5-oxo-4,5-dihydro-1,2,4-oxadiazol-3-yl)biphenyl-4-yl]methyl}-7-propyl[1,2,4]triazolo[1,5-a]pyrimidin-5(4H)-one] | 41 | 2.5 |
| CCCc1c(Cc2ccc(-c3ccccc3-c3nnn[nH]3)cc2)c(=O)n([C@H]2CC[C@H](c3cnco3)CC2)c2ncnn12 [Example 185, 4-[trans-4-(1,3-oxazol-5-yl)cyclohexyl]-7-propyl-6-{[2′-(1H-tetrazol-5-yl)biphenyl-4-yl]methyl}[1,2,4]triazolo[1,5-a]pyrimidin-5(4H)-one] | 22 | 2.3 |
| CCCc1c(Cc2ccc(-c3ccccc3-c3noc(=O)[nH]3)cc2)c(=O)n([C@H]2CC[C@H](OCCCO)CC2)c2ncnn12 [Example 186, 4-[trans-4-(3-hydroxypropoxy)cyclohexyl]-6-{[2′-(5-oxo-4,5-dihydro-1,2,4-oxadiazol-3-yl)biphenyl-4-yl]methyl}-7-propyl[1,2,4]triazolo[1,5-a]pyrimidin-5(4H)-one] | 24 | 2.1 |
| CCCc1c(Cc2ccc(-c3ccccc3-c3noc(=O)[nH]3)cc2)c(=O)n(C2CCC(=NOC)CC2)c2ncnn12 (stereo not shown) [Example 188, 4-[4-(methoxyimino)cyclohexyl]-6-{[2′-(5-oxo-4,5-dihydro-1,2,4-oxadiazol-3-yl)biphenyl-4-yl]methyl}-7-propyl[1,2,4]triazolo[1,5-a]pyrimidin-5(4H)-one] | 25 | 1.9 |
| CCCc1c(Cc2ccc(-c3ccccc3-c3noc(=O)[nH]3)cc2)c(=O)n([C@H]2CC[C@](C)(CO)CC2)c2ncnn12 [Example 189, 4-[trans-4-(hydroxymethyl)-4-methylcyclohexyl]-6-{[2′-(5-oxo-4,5-dihydro-1,2,4-oxadiazol-3-yl)biphenyl-4-yl]methyl}-7-propyl[1,2,4]triazolo[1,5-a]pyrimidin-5(4H)-one] | 35 | 3.1 |
| CCCc1c(Cc2ccc(-c3ccccc3-c3noc(=O)[nH]3)cc2)c(=O)n(C2CCC(=CCO)CC2)c2ncnn12 (stereo not shown) [Example 191, 4-[4-(2-hydroxyethylidene)cyclohexyl]-6-{[2′-(5-oxo-4,5-dihydro-1,2,4-oxadiazol-3-yl)biphenyl-4-yl]methyl}-7-propyl[1,2,4]triazolo[1,5-a]pyrimidin-5(4H)-one] | 34 | 1.6 |
